Data as given in patent publication US10285994B2, “Method of preventing or treating osteoporosis by neddylation inhibitor” (Chang Gung University, priority 2017, dated 2019).

How the values were obtained:
[1] = tested on: UBA3; test: Western blot of UBA3 expression in RAW264.7 cells; assay type: cell-based, mouse; settings: siRNA-transfected RAW264.7, FIG. 5B
Protocol: (§1) FIGS. 5A-5D are the data respectively depicting the effect of sRANKL on the neddylation pathway and the knockdown effect of UBA3 siRNA on macrophages during osteoclast differentiation according to example 4 of the present disclosure. FIG. 5A: RAW264.7 mouse macrophages were seeded on wells and were treated with various concentrations of sRANKL (0-100 ng/ml). After 72 hours' incubation, the cells were lysed and subjected to Western blotting analysis using specific antibodies in neddylation pathway. FIG. 5B: RAW264.7 mouse macrophages were seeded on wells and transfected with UBA3 or scrambled siRNA. After culture, the transfected cells were harvested, lysed, and further analyzed by Western Blot for checking NEDD8, UBA3, and APPBP1 expressions. FIGS. 5C and 5D: the UBA3 or scrambled siRNA transfected RAW264.7 cells were further treated with sRANKL (50 ng/ml), after 3-day induction, the morphological change of macrophages to TRAP-stained positive giant osteoclasts were photographed and further counted. Data are expressed as mean±SD where *p<0.05.
The RAW264.7 cells were starved with serum-free medium for six hours and then treated with the specified treatments. At indicated time points, the cells were washed with cold phosphate-buffered saline (PBS) and lysed in RIPA buffer containing complete protease inhibitor cocktail (Roche). […]

[2] = tested on: RAW264.7 cells; test: UBA3 knockdown on osteoclast differentiation, count of TRAP-positive giant osteoclasts; assay type: cell-based, mouse; settings: siRNA-transfected RAW264.7, sRANKL 50 ng/ml, 3 days, FIG. 5C-5D
Protocol: as §1, with “*p<0.05. […]” for “*p<0.05.”
Six hours' post-transfection, the cells were treated with sRANKL (50 ng/ml). Three days later, the effect of UBA3 knockdown on mature giant osteoclast formation on wells was photographed and counted. […]

Row | Substance | knockdown of UBA3 expression [1] | differentiating number of giant osteoclasts [2]
1 | UBA3 siRNA 3: siRNA targeting UBA3, sense SEQ ID NO: 5, anti-sense SEQ ID NO: 6 (sense CCAAGCUCCAUUGUACCUUTT; antisense TTGGUUCGAGGUAACAUGGAA; chemistry not given here; one strand is listed 3' to 5') | can knockdown the expression of UBA3 | significantly diminished the differentiating number of giant osteoclasts
2 | UBA3 siRNA 2: siRNA targeting UBA3, sense SEQ ID NO: 3, anti-sense SEQ ID NO: 4 (sense GGAUCAAUGGAAUGCUGAUTT; antisense TTCCUAGUUACCUUACGACUA; chemistry not given here; one strand is listed 3' to 5') | can knockdown the expression of UBA3 | significantly diminished the differentiating number of giant osteoclasts
